Source: patent US20050239656A1, “Pyridine compounds or salts thereof and herbicides containing the same” (priority 2002, published 2005)

What was measured:
japanese bulrush = test: Test Example 3: paddy pot test, application under submerged conditions; format: in vivo, Scirpus juncoides; conditions: active ingredient 500 g/ha; submerged application at 0.5 leaf stage; visually observed 14 days after application; 0 = non-treated, 100 = complete kill
Procedure, shortened: (§1)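 Barnyardgrass and japanese bulrush sown in flooded paddy soil in greenhouse pots, japanese ribbon wapato tubers planted 1–2 days later; water depth kept at 3–4 cm. Diluted wettable powder or emulsifiable concentrate applied into water at 0.5-leaf or primary-leaf stage at set active-ingredient doses. Growth control scored visually at 14 days, 0 (untreated) to 100% (complete kill).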

prickly sida [1] = test: Test Example 2: soil surface treatment, upland pot test; format: in vivo, Sida spinosa L.; conditions: observed 20th to 28th day
Procedure, shortened: (§2)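 Soil surface treated 1 day post-sowing. Formulation: WP or EC, predetermined a.i., diluted to 1,500 L/ha. Pot size 1/170,000 ha, upland soil. Readout: visual % control, 0 = non-treated, 100 = dead, days 20–28.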

barnyardgrass [2] = test: Test Example 3: paddy pot test, application under submerged conditions; format: in vivo, Echinochloa crus-galli L.; conditions: active ingredient 500 g/ha; submerged application at 0.5 leaf stage; visually observed 14 days after application; 0 = non-treated, 100 = complete kill
Procedure, shortened: as §1

wheat [3] = test: Test Example 2: soil surface treatment, upland pot test; format: in vivo, Triticum spp.; conditions: observed 20th to 28th day
Procedure, shortened: as §2

japanese ribbon wapato = test: Test Example 3: paddy pot test, application under submerged conditions; format: in vivo, Sagittaria pygniaea; conditions: active ingredient 500 g/ha; submerged application at primary leaf stage; visually observed 14 days after application; 0 = non-treated, 100 = complete kill
Procedure, shortened: as §1

green foxtail [4] = test: Test Example 2: soil surface treatment, upland pot test; format: in vivo, Setaria viridis L.; conditions: observed 20th to 28th day
Procedure, shortened: as §2

barnyardgrass [5] = test: as above; format: in vivo, Echinochloa crus-galli L.; conditions: observed 20th to 28th day
Procedure, shortened: as §2

redroot pigweed [6] = test: as above; format: in vivo, Amaranthus retroflexus L.; conditions: observed 20th to 28th day
Procedure, shortened: as §2

soybean [7] = test: as above; format: in vivo, Glycine max Merr.; conditions: observed 20th to 28th day
Procedure, shortened: as §2

rice (var. Nihonbare) = test: Test Example 3: paddy pot test, transplanted rice; format: in vivo, Oryza sativa L.; conditions: active ingredient 500 g/ha, applied 4th day after transplantation, visually observed 21st day after application, 0 = non-treated, 100 = complete kill
Procedure, shortened: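 Rice (var. Nihonbare) at 2 leaf stage transplanted 3 cm deep into puddled paddy soil under 3–4 cm flooding; on day 4 after transplanting, diluted wettable powder or emulsifiable concentrate applied by pipette under submerged conditions at a set active-ingredient dose. Growth scored visually 21 days after application, 0 (untreated) to 100 (complete kill) %.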

velvetleaf [8] = test: Test Example 2: soil surface treatment, upland pot test; format: in vivo, Abutilon theophrasti MEDIC.; conditions: observed 20th to 28th day
Procedure, shortened: as §2

crabgrass [9] = test: as above; format: in vivo, Digitaria sanguinalis L.; conditions: observed 20th to 28th day
Procedure, shortened: as §2

corn [10] = test: as above; format: in vivo, Zea mays L.; conditions: observed 20th to 28th day
Procedure, shortened: as §2

rice [11] = test: as above; format: in vivo, Oryza sativa L.; conditions: observed 20th to 28th day
Procedure, shortened: as §2

redroot pigweed [12] = test: Test Example 1: foliage treatment, upland pot test; format: in vivo, Amaranthus retroflexus L.; conditions: active ingredient 1000 g/ha, observed 18th to 23rd day, 0 = non-treated, 100 = complete kill
crabgrass [13] = test: Test Example 1: foliage treatment, upland pot test; format: in vivo, Digitaria sanguinalis L.; conditions: active ingredient 1000 g/ha, observed 18th to 23rd day, 0 = non-treated, 100 = complete kill
prickly sida [14] = test: Test Example 1: foliage treatment, upland pot test; format: in vivo, Sida spinosa L.; conditions: active ingredient 1000 g/ha, observed 18th to 23rd day, 0 = non-treated, 100 = complete kill
barnyardgrass [15] = test: Test Example 1: foliage treatment, upland pot test; format: in vivo, Echinochloa crus-galli L.; conditions: active ingredient 1000 g/ha, observed 18th to 23rd day, 0 = non-treated, 100 = complete kill
Procedure, shortened: (§3)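 Visual growth-control score, 0% (like untreated) to 100% (complete kill), taken on days 18 to 23 after foliar spraying. Leaf stage at treatment: barnyardgrass 1.3–2.8, rice 1.2–2.6, wheat 1.3–2.4, soybean 0.1–0.4. Spray: wettable powder or EC in 500 L/ha water, 0.1% v/v spreader added.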

rice [16] = test: Test Example 1: foliage treatment, upland pot test; format: in vivo, Oryza sativa L.; conditions: crop, active ingredient 1000 g/ha, observed 18th to 23rd day, 0 = non-treated, 100 = complete kill
Procedure, shortened: as §3

soybean [17] = test: Test Example 1: foliage treatment, upland pot test; format: in vivo, Glycine max Merr.; conditions: crop, active ingredient 1000 g/ha, observed 18th to 23rd day, 0 = non-treated, 100 = complete kill
Procedure, shortened: as §3

corn [18] = test: Test Example 1: foliage treatment, upland pot test; format: in vivo, Zea mays L.; conditions: crop, active ingredient 1000 g/ha, observed 18th to 23rd day, 0 = non-treated, 100 = complete kill
Procedure, shortened: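 Corn seeds were sown in upland field soil held in a 1/170,000 ha pot and grown to the 2.1 to 3.2 leaf stage. A wettable powder or emulsifiable concentrate of the test compound was diluted with water at 500 L/ha, given 0.1% (v/v) agricultural spreader, and sprayed onto the foliage with a small sprayer. Growth controlling degree (%) was scored visually 18th to 23rd days later, from 0 (non-treated) to 100 (complete kill).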

green foxtail [19] = test: Test Example 1: foliage treatment, upland pot test; format: in vivo, Setaria viridis L.; conditions: active ingredient 1000 g/ha, observed 18th to 23rd day, 0 = non-treated, 100 = complete kill
wheat [20] = test: Test Example 1: foliage treatment, upland pot test; format: in vivo, Triticum spp.; conditions: crop, active ingredient 1000 g/ha, observed 18th to 23rd day, 0 = non-treated, 100 = complete kill
Text: Upland field soil was put into a 1/170,000 ha pot, and seed of various plants were sown. Then, when the plants reached predetermined leaf stages ((1) barnyardgrass: 1.3 to 2.8 leaf stages, (2) crabgrass: 1.0 to 2.8 leaf stages, (3) green foxtail: 1.3 to 2.6 leaf stages, (4) redroot pigweed: 0.1 to 1.2 leaf stages, (5) prickly sida: 0.1 to 1.2 leaf stages, (6) velvetleaf: 0.1 to 1.2 leaf stages, (7) tall morningglory: 0.1 to 1.5 leaf stages, (8) rice: 1.2 to 2.6 leaf stages, (9) wheat: 1.3 to 2.4 leaf stages, (10) corn, 2.1 to 3.2 leaf stages, (11) soybean: 0.1 to 0.4 leaf stage), a wettable powder or emulsifiable concentrate having the compound of the present invention formulated in accordance with a usual formulation method, was weighed so that the active ingredient would be a predetermined amount, and diluted with water in an amount of 500 L/ha. To the diluted solution, 0.1% (v/v) of agricultural spreader was added. The herbicide thus adjusted was applied by a small size sprayer for foliage treatment. On the 18th to 23rd days after the application of the herbicide, the growth of the respective plants was visually observed, and the herbicidal effects were evaluated by the growth controlling degrees (%) ranging from 0 (equivalent to the non-treated plot) to 100 (complete kill), whereby the results shown in Table 3, were obtained.

velvetleaf [21] = test: Test Example 1: foliage treatment, upland pot test; format: in vivo, Abutilon theophrasti MEDIC.; conditions: active ingredient 1000 g/ha, observed 18th to 23rd day, 0 = non-treated, 100 = complete kill
[22] = active ingredient 1000 g/ha, 0 = non-treated, 100 = complete kill

Compound | Growth controlling degree (%) Japanese bulrush (japanese bulrush) | Growth controlling degree (%) Prickly sida (prickly sida [1]; active ingredient 1000 g/ha) | Growth controlling degree (%) Barnyardgrass (barnyardgrass [2]) | Growth controlling degree (%) wheat (wheat [3]; active ingredient 1000 g/ha) | Growth controlling degree (%) Japanese ribbon wapato (japanese ribbon wapato) | Growth controlling degree (%) Green foxtail (green foxtail [4]; active ingredient 1000 g/ha) | Growth controlling degree (%) Barnyardgrass (barnyardgrass [5]; [22]) | Growth controlling degree (%) Redroot pigweed (redroot pigweed [6]; active ingredient 1000 g/ha) | Growth controlling degree (%) Soyabean (soybean [7]; active ingredient 1000 g/ha) | Growth controlling degree (%) Rice (rice (var. Nihonbare)) | Growth controlling degree (%) Velvetleaf (velvetleaf [8]; active ingredient 1000 g/ha) | Growth controlling degree (%) Crabgrass (crabgrass [9]; active ingredient 1000 g/ha) | Growth controlling degree (%) Corn (corn [10]; active ingredient 1000 g/ha) | Growth controlling degree (%) Rice (rice [11]; active ingredient 1000 g/ha) | Growth controlling degree (%) Prickly sida (prickly sida [1]; active ingredient 2000 g/ha) | Growth controlling degree (%) wheat (wheat [3]; active ingredient 2000 g/ha) | Growth controlling degree (%) Green foxtail (green foxtail [4]; active ingredient 2000 g/ha) | Growth controlling degree (%) Barnyardgrass (barnyardgrass [5]; active ingredient 2000 g/ha) | Growth controlling degree (%) Redroot pigweed (redroot pigweed [6]; active ingredient 2000 g/ha) | Growth controlling degree (%) Soyabean (soybean [7]; active ingredient 2000 g/ha) | also measured
CC(C(=O)NC(c1cnccc1C(F)(F)F)C(C)C)c1ccccc1 (stereo not drawn) [Compound I-11] | 90% | 0% | 60% | 50% | 30% | 90% | 98% | 0% | 0% | 10% | 0% | 90% | 10% | 0% | – | – | – | – | – | – | –
CCC(=O)NC(c1cnccc1C(F)(F)F)c1cccc2ccccc12 (stereo not drawn) [Compound I-42] | 95% | 0% | 70% | 30% | 10% | 90% | 70% | 0% | 0% | 30% | 0% | 90% | 10% | 0% | – | – | – | – | – | – | –
COC(=O)NC(c1cnccc1C(F)(F)F)c1cccc2ccccc12 (stereo not drawn) [Compound I-45] | 90% | 40% | 85% | 30% | 60% | 60% | 0% | 40% | 0% | 30% | 40% | 90% | 20% | 50% | – | – | – | – | – | – | –
CN(C(=O)Cc1ccccc1)C(c1cnccc1C(F)(F)F)c1cccc2ccccc12 (stereo not drawn) [Compound I-47] | 30% | – | 98% | – | 0% | – | – | – | – | 10% | – | – | – | – | 40% | 20% | 80% | 60% | 0% | 10% | Growth controlling degree (%) Velvetleaf (velvetleaf [8]; active ingredient 2000 g/ha): 20%; Growth controlling degree (%) Crabgrass (crabgrass [9]; active ingredient 2000 g/ha): 90%; Growth controlling degree (%) Corn (corn [10]; active ingredient 2000 g/ha): 10%; Growth controlling degree (%) Rice (rice [11]; active ingredient 2000 g/ha): 0%
CN(C(=O)Cc1cccs1)C(c1cnccc1C(F)(F)F)c1cccc2ccccc12 (stereo not drawn) [Compound I-48] | 30% | – | 100% | – | 0% | – | – | – | – | 10% | – | – | – | – | 20% | 30% | 100% | 20% | 30% | 0% | Growth controlling degree (%) Velvetleaf (velvetleaf [8]; active ingredient 2000 g/ha): 40%; Growth controlling degree (%) Crabgrass (crabgrass [9]; active ingredient 2000 g/ha): 70%; Growth controlling degree (%) Corn (corn [10]; active ingredient 2000 g/ha): 10%; Growth controlling degree (%) Rice (rice [11]; active ingredient 2000 g/ha): 20%
CC(C)C(c1cnccc1C(F)(F)F)N(C)C(=O)C=Cc1cccc2ccccc12 (stereo not drawn) [I-187] | 10% | – | 100% | – | 20% | – | – | – | – | 0% | – | – | – | – | – | – | – | – | – | – | Growth controlling degree (%) Redroot pigweed (redroot pigweed [12]): 80%; Growth controlling degree (%) Crabgrass (crabgrass [13]): 95%; Growth controlling degree (%) Prickly sida (prickly sida [14]): 90%; Growth controlling degree (%) Barnyardgrass (barnyardgrass [15]): 60%; Growth controlling degree (%) Rice (rice [16]): 30%; Growth controlling degree (%) Soybean (soybean [17]): 60%; Growth controlling degree (%) Corn (corn [18]): 80%; Growth controlling degree (%) Green foxtail (green foxtail [19]): 60%; Growth controlling degree (%) wheat (wheat [20]): 10%; Growth controlling degree (%) Velvetleaf (velvetleaf [21]): 40%
